# Test results: patent publication US10968178B2, “IP6K inhibitors” (TAKEDA PHARMACEUTICAL COMPANY LIMITED, priority 2017, dated 2021)
# What was measured:
# Type in all cases: biochemical
# human IP6K3 = molecular target: T1, human IP6K3 (Homo sapiens, UniProt Q96PC2); assay: IP6K enzyme inhibitory assay (ADP-Glo Kinase Assay), human IP6K3; settings: compound concentration 0.1 μM; read-out: ADP-Glo method inhibitory rate (%) human IP6K3
# T1 construct: human IP6K3 (1-410) gene; made in house; host or cells: BL21 (DE3) Escherichia coli
# T1 sequence (Q96PC2 1-410): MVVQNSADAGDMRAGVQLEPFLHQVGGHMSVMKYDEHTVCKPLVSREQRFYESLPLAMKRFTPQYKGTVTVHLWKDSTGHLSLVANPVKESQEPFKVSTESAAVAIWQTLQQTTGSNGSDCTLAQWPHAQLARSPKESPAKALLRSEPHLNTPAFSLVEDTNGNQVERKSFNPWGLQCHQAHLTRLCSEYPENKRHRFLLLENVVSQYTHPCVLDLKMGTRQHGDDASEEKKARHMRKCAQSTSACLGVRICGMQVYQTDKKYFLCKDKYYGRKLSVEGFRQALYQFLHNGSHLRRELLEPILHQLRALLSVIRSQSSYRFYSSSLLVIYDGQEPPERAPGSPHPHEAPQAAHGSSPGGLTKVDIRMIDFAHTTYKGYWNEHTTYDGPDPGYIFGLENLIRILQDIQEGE
# Method in brief: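 Recombinant human IP6K (IP6K3 residues 1-410, E. coli, Ni-NTA purified) incubated with compound in 20 mM HEPES pH 7.5, 6 mM MgCl2, 0.01% Tween-20, 1 mM DTT for 60 min at room temperature. ADP formed read as luminescence by ADP-Glo.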
# human IP6K1 = molecular target: T2, human IP6K1 (Homo sapiens, UniProt Q92551); assay: IP6K enzyme inhibitory assay (ADP-Glo Kinase Assay), human IP6K1; settings: compound concentration 0.1 μM; read-out: ADP-Glo method inhibitory rate (%) human IP6K1
# T2 construct: human IP6K1 (1-441) gene; GST; made in house; host or cells: Sf-9 insect cells
# Method in brief: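 Inhibition of human IP6K1 was determined with Promega's ADP-Glo Kinase Assay in 384 well plates. Test compound diluted in assay buffer (20 mM HEPES (pH 7.5), 6 mM MgCl2, 0.01% Tween-20, 1 mM DTT) was added at 2 μL, then 2 μL of enzyme started the reaction for 60 min at room temperature. Next came 3 μL ADP-Glo solution for 30 min and 6 μL Kinase-Detection solution for 60 min. Luminescence was read on an Envision plate reader.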
# human IP6K2 = molecular target: T3, human IP6K2 (Homo sapiens, UniProt Q9UHH9); assay: IP6K enzyme inhibitory assay (ADP-Glo Kinase Assay), human IP6K2; settings: compound concentration 0.1 μM; read-out: ADP-Glo method inhibitory rate (%) human IP6K2
# T3 construct: human IP6K2 (1-426) gene; GST; made in house; host or cells: Sf-9 insect cells
# T3 sequence (Q9UHH9 1-426): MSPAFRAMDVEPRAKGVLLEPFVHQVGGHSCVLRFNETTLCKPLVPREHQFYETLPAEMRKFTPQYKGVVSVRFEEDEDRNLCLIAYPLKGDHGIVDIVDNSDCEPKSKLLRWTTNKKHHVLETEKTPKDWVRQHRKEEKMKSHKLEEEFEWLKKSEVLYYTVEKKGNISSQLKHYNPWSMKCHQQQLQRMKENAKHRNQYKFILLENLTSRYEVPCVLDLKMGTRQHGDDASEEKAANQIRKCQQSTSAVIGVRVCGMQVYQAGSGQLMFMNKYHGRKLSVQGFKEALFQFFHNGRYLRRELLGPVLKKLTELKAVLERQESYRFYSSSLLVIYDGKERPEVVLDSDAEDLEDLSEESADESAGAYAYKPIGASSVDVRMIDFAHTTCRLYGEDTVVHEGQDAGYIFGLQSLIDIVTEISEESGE
# Method in brief: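 The inhibitory activity against human IP6K2 was measured with Promega's ADP-Glo Kinase Assay in 384 well plates. Test compound, diluted in assay buffer (20 mM HEPES (pH 7.5), 6 mM MgCl2, 0.01% Tween-20, 1 mM DTT), was added at 2 μL. Adding 2 μL of diluted enzyme started the reaction, which ran for 60 min at room temperature. Next, 3 μL ADP-Glo solution (30 min) and 6 μL Kinase-Detection solution (60 min) were added, and luminescence was read on an Envision plate reader.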
# T2 sequence (Q92551 whole entry): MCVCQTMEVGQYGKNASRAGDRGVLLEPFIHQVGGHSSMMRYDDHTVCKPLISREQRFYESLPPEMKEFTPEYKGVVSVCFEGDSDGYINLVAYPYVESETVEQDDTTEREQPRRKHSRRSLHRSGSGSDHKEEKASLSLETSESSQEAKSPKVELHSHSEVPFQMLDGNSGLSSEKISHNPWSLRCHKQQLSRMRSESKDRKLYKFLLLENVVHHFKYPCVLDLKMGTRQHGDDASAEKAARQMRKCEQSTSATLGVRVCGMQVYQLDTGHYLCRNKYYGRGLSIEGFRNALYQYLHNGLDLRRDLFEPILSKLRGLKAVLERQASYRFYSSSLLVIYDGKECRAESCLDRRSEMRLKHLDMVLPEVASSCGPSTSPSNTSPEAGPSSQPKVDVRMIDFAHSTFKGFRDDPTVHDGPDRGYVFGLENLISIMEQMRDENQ
inhibition at 0.1 µM (human IP6K3) [%],inhibition at 0.1 µM (human IP6K1) [%],inhibition at 0.1 µM (human IP6K2) [%],SMILES
89,89,94,"O=C(O)c1ccc2c(c1)[C@]1(CC[C@@H](Oc3cccc(C(F)(F)F)c3)CC1)C(=O)N2 [Example 75, (1r,4r)-2′-oxo-4-(3-(trifluoromethyl)phenoxy)-1′,2′-dihydrospiro[cyclohexane-1,3′-indole]-5′-carboxylic acid]"
89,62,82,"Cn1nc(O[C@H]2CC[C@@]3(CC2)C(=O)Nc2ccc(C(=O)O)cc23)cc1C(F)(F)F [Example 80, (1r,4r)-4-((1-methyl-5-(trifluoromethyl)-1H-pyrazol-3-yl)oxy)-2′-oxo-1′,2′-dihydrospiro[cyclohexane-1,3′-indole]-5′-carboxylic acid]"
99,98,101,"COc1cc(Cl)ccc1O[C@H]1CC[C@@]2(CC1)C(=O)Nc1ccc(C(=O)O)cc12 [Example 82, (1r,4r)-4-(4-chloro-2-methoxyphenoxy)-2′-oxo-1′,2′-dihydrospiro[cyclohexane-1,3′-indole]-5′-carboxylic acid]"
91,75,59,"O=C(O)c1ccc2c(n1)[C@]1(CC[C@H](Oc3ccc(F)cc3F)CC1)C(=O)N2 [Example 84, (1s,4s)-4-(2,4-difluorophenoxy)-2′-oxo-1′,2′-dihydrospiro[cyclohexane-1,3′-pyrrolo[3,2-b]pyridine]-5′-carboxylic acid]"
102,107,102,"O=C(O)c1ccc2c(c1)[C@]1(CC[C@H](Oc3ncc(Cl)cc3F)CC1)C(=O)N2 [Example 87, (1s,4s)-4-((5-chloro-3-fluoropyridin-2-yl)oxy)-2′-oxo-1′,2′-dihydrospiro[cyclohexane-1,3′-indole]-5′-carboxylic acid]"
26,9,14,"Cc1cc(Cl)cc(C)c1O[C@H]1CC[C@]2(CC1)C(=O)Nc1ccc(C(=O)O)nc12 [Example 89, (1s,4s)-4-(4-chloro-2,6-dimethylphenoxy)-2′-oxo-1′,2′-dihydrospiro[cyclohexane-1,3′-pyrrolo[3,2-b]pyridine]-5′-carboxylic acid]"

# More lines, now with the values behind:
SMILES,inhibition at 0.1 µM (human IP6K3) [%],inhibition at 0.1 µM (human IP6K1) [%],inhibition at 0.1 µM (human IP6K2) [%]
"O=C(O)c1ccc2c(c1)[C@]1(CC[C@@H](Oc3cc(F)cc(C(F)(F)F)c3)CC1)C(=O)N2 [Example 76, (1r,4r)-4-(3-fluoro-5-(trifluoromethyl)phenoxy)-2′-oxo-1′,2′-dihydrospiro[cyclohexane-1,3′-indole]-5′-carboxylic acid]",86,81,86
"O=C(O)c1ccc2c(c1)[C@]1(CC[C@@H](Oc3cccc(C(F)(F)F)c3F)CC1)C(=O)N2 [Example 77, (1r,4r)-4-(2-fluoro-3-(trifluoromethyl)phenoxy)-2′-oxo-1′,2′-dihydrospiro[cyclohexane-1,3′-indole]-5′-carboxylic acid]",98,94,99
"O=C(O)c1ccc2c(c1)[C@]1(CC[C@@H](Oc3cc(C(F)(F)F)ccc3F)CC1)C(=O)N2 [Example 78, (1r,4r)-4-(2-fluoro-5-(trifluoromethyl)phenoxy)-2′-oxo-1′,2′-dihydrospiro[cyclohexane-1,3′-indole]-5′-carboxylic acid]",98,96,96
"O=C(O)c1ccc2c(c1)[C@]1(CC[C@@H](Oc3ccc(F)c(C(F)(F)F)c3)CC1)C(=O)N2 [Example 79, (1r,4r)-4-(4-fluoro-3-(trifluoromethyl)phenoxy)-2′-oxo-1′,2′-dihydrospiro[cyclohexane-1,3′-indole]-5′-carboxylic acid]",97,87,89
"Cc1cc(Cl)cnc1O[C@H]1CC[C@]2(CC1)C(=O)Nc1ccc(C(=O)O)nc12 [Example 81, (1s,4s)-4-((5-chloro-3-methylpyridin-2-yl)oxy)-2′-oxo-1′,2′-dihydrospiro[cyclohexane-1,3′-pyrrolo[3,2-b]pyridine]-5′-carboxylic acid]",100,96,100
"COc1cc(Cl)ccc1O[C@H]1CC[C@]2(CC1)C(=O)Nc1ccc(C(=O)O)cc12 [Example 83, (1s,4s)-4-(4-chloro-2-methoxyphenoxy)-2′-oxo-1′,2′-dihydrospiro[cyclohexane-1,3′-indole]-5′-carboxylic acid]",102,97,100
"O=C(O)c1ccc2c(n1)[C@]1(CC[C@H](Oc3ccccc3Cl)CC1)C(=O)N2 [Example 85, (1s,4s)-4-(2-chlorophenoxy)-2′-oxo-1′,2′-dihydrospiro[cyclohexane-1,3′-pyrrolo[3,2-b]pyridine]-5′-carboxylic acid]",95,81,71
"O=C(O)c1ccc2c(n1)[C@]1(CC[C@H](Oc3c(F)cc(Cl)cc3F)CC1)C(=O)N2 [Example 86, (1s,4s)-4-(4-chloro-2,6-difluorophenoxy)-2′-oxo-1′,2′-dihydrospiro[cyclohexane-1,3′-pyrrolo[3,2-b]pyridine]-5′-carboxylic acid]",80,55,50
"O=C(O)c1ccc2c(n1)[C@]1(CC[C@H](Oc3ccc(Cl)cc3)CC1)C(=O)N2 [Example 88, (1s,4s)-4-(4-chlorophenoxy)-2′-oxo-1′,2′-dihydrospiro[cyclohexane-1,3′-pyrrolo[3,2-b]pyridine]-5′-carboxylic acid]",97,101,97
"O=C(O)c1ccc2c(n1)[C@]1(CC[C@@H](Oc3ccccc3Cl)CC1)C(=O)N2 [Example 90, (1r,4r)-4-(2-chlorophenoxy)-2′-oxo-1′,2′-dihydrospiro[cyclohexane-1,3′-pyrrolo[3,2-b]pyridine]-5′-carboxylic acid]",61,49,47
"O=C(O)c1ccc2c(n1)[C@]1(CC[C@@H](Oc3ccc(F)cc3F)CC1)C(=O)N2 [Example 91, (1r,4r)-4-(2,4-difluorophenoxy)-2′-oxo-1′,2′-dihydrospiro[cyclohexane-1,3′-pyrrolo[3,2-b]pyridine]-5′-carboxylic acid]",79,69,60
"O=C(O)c1ccc2c(n1)[C@]1(CC[C@@H](Oc3ccc(Cl)cc3)CC1)C(=O)N2 [Example 92, (1r,4r)-4-(4-chlorophenoxy)-2′-oxo-1′,2′-dihydrospiro[cyclohexane-1,3′-pyrrolo[3,2-b]pyridine]-5′-carboxylic acid]",98,97,92
"O=C(O)c1ccc2c(n1)[C@]1(CC[C@@H](Oc3c(F)cc(Cl)cc3F)CC1)C(=O)N2 [Example 93, (1r,4r)-4-(4-chloro-2,6-difluorophenoxy)-2′-oxo-1′,2′-dihydrospiro[cyclohexane-1,3′-pyrrolo[3,2-b]pyridine]-5′-carboxylic acid]",101,92,96
